In US6329400A, “Formamide compounds as therapeutic agents” (Glaxo Wellcome Inc., priority 1998, dated 2001):

Assays:
[1] = test system: TNFα release from MonoMac 6 cells; assay: Cell-Based TNFα Release Inhibition Protocol; details: Homo sapiens, MONO-MAC-6; LPS/PMA-stimulated MonoMac 6 cells, 37° C., 2 hours
Protocol: C. Cell-Based TNFα Release Inhibition Protocol
This solution is then diluted 1:1000 (40 ng/mL and 120 ng/mL) for use later in the assay. Compounds (10 mM) are serially diluted 1:3 in DMSO. Compound dilutions (20 μL) are added to a sterile round bottom 96 well plate (20 μL:200 μL total volume=1:10 for final concentrations of 50 μM for test compounds). MonoMac 6 cell suspension (130 μL, 1.5×10^6 cells/mL) is then added to each well resulting in 2×10^5 cells/well. LPS/PMA (50 μL) solution is then added to each well to begin stimulation (final concentrations of 10 ng/mL and 30 ng/mL respectively). The plate is incubated at 37° C. for 2 hours then spun at 1,500 rpm for 3 minutes to pellet cells. The supernatant (120 μL/well) is removed to a new round bottom 96 well plate and diluted 1:10 in PBS. Then, 20 μL of the supernatant is transferred to a Cistron TNFα ELISA plate and processed according to the manufacturer's instructions to quantitate levels of TNFα. Percent inhibition of TNFα release is calculated at each inhibitor concentration and the data were plotted using standard curve fitting programs. IC50 values were determined from these curves.

stromelysin-1 (MMP-3) = stromelysin-1 (MMP-3) (Homo sapiens, UniProt P08254); assay: Matrix Metalloprotease Inhibition Protocol, stromelysin-1; assay type: biochemical; details: fluorogenic substrate, pH 7.6; IC50 equivalent to Ki at [S]<<Km
Protocol: (§1) A. Matrix Metalloprotease Inhibition Protocol
(§2) Assays are conducted in a total volume of 0.180 mL assay buffer (200 mM NaCl, 50 mM Tris, 5 mM CaCl2, 10 μM ZnSO4, 0.005% Brij 35, pH 7.6) in each well of a black 96 well microtiter plate. 19 kD collagenase-1, 20 kD collagenase-3, stromelysin-1,and 50 kD gelatinase B concentrations are adjusted to 500 pM, 30 pM, 5 nM, and 100 pM, respectively. A dose response is generated using an eleven-point, 3-fold serial dilution with initial starting test compound concentrations of 100, 10, or 1 μM. Inhibitor and enzyme reactions are incubated for 30 minutes at ambient temperature and then initiated with 10 μM fluorogenic substrate (above). The product formation is measured at Excitation343 /Emission450 nm after 45-180 minutes using a Fluostar SLT fluorescence analyzer. Percent inhibition is calculated at each inhibitor concentration and the data were plotted using standard curve fitting programs. IC50 values were determined from these curves. Assays were run at low substrate concentration ([S]<<Km) such that the calculated IC50 values are equivalent to Ki within experimental error.

[2] = biological target: 20 kD truncated collagenase-3 (MMP-13); assay: Matrix Metalloprotease Inhibition Protocol, collagenase-3; assay type: biochemical; details: fluorogenic substrate, pH 7.6; IC50 equivalent to Ki at [S]<<Km
Protocol: as §1
as §2, with “curves.” for “curves. Assays were run at low substrate concentration ([S]<<Km) such that the calculated IC50 values are equivalent to Ki within experimental error.”

[3] = biological target: 50 kD truncated gelatinase B (MMP-9); assay: Matrix Metalloprotease Inhibition Protocol, gelatinase B; assay type: biochemical; details: fluorogenic substrate, pH 7.6; IC50 equivalent to Ki at [S]<<Km
Protocol: as §1
as §2, with “curves.” for “curves. Assays were run at low substrate concentration ([S]<<Km) such that the calculated IC50 values are equivalent to Ki within experimental error.”

[4] = biological target: T1, 19 kD truncated collagenase-1 (MMP-1) (Homo sapiens, UniProt P03956); assay: Matrix Metalloprotease Inhibition Protocol, collagenase-1; assay type: biochemical; details: fluorogenic substrate, pH 7.6; IC50 equivalent to Ki at [S]<<Km
T1 construct: 19 kD truncated collagenase-1 (MMP-1)
T1 sequence (P03956 101-269 limits assumed): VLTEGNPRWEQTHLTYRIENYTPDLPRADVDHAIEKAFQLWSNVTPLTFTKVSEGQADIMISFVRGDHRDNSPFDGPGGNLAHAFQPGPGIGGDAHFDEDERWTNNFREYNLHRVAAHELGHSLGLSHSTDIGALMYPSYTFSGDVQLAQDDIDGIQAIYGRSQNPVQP
Protocol: as §1, §2

TNFα converting enzyme = biological target: T2, TNFα converting enzyme (Homo sapiens, UniProt P78536); assay: TNFα Converting Enzyme Inhibition Protocol; assay type: biochemical; details: cell-free, MonoMac 6 membrane preparation; IC50 equivalent to Ki at [S]<<Km
T2 construct: Membrane preparation from MonoMac 6 cells; endogenous in cells; host or cells: MonoMac 6 cells (membrane preparation, subfractionated extract)
Protocol: B. TNFα Converting Enzyme Inhibition Protocol
The reaction is quenched by addition of streptavidin SPA beads (Amersham RPNQ0006), with excess binding capacity relative to substrate, suspended in 250 mM EDTA, pH 8.0. Binding is complete within 15 minutes and plates are counted in a Wallac 1450 Microbeta liquid scintillation counter. Percent inhibition is calculated at each inhibitor concentration and the data were plotted using standard curve fitting programs. IC50 values were determined from these curves.

serum TNFα = assay: Murine LPS-Stimulated Serum TNF Inhibition Protocol; assay type: in vivo; details: 40 mg/kg, 10 min prior to LPS, mice, 90 min after LPS
Protocol: Murine LPS--Stimulated Serum TNF Inhibition Protocol
The potency of compounds of the invention as inhibitors of serum TNFα elevation in mice treated with lipopolysaccharide (LPS) is determined as follows; a) for subcutaneous (s.c.) administration, test compound is dissolved in DMSO and added to a mixture of 0.9% sodium chloride solution and 30% Trappsol HPB-20 (Cyclodextrin Technology Development Inc., Gainesville, Fla. USA) for a final DMSO concentration of 1%. The dosing solution is sonicated briefly and 0.2 mL is injected subcutaneously 10 min prior to LPS injection, b) for per oral (p.o.) administration, test compounds are formulated in 0.2 mL of PBS and 0.1% Tween 80 and given orally via gavage 10 min prior to LPS administration.
C3/hen female mice are injected intraperitoneally with 200 μg/kg LPS (Escherichia coli, Serotype 0111:B4, Sigma Chemical Co, St. Louis, Mo.) in PBS and sacrificed 90 min later by CO2 asphyxiation. Blood is immediately taken from the caudal vena cava and plasma prepared and frozen at -80° C. Plasma concentrations of TNF are measured by ELISA (Genzyme Co., Cambridge Mass.).

T2 sequence (P78536 215-824): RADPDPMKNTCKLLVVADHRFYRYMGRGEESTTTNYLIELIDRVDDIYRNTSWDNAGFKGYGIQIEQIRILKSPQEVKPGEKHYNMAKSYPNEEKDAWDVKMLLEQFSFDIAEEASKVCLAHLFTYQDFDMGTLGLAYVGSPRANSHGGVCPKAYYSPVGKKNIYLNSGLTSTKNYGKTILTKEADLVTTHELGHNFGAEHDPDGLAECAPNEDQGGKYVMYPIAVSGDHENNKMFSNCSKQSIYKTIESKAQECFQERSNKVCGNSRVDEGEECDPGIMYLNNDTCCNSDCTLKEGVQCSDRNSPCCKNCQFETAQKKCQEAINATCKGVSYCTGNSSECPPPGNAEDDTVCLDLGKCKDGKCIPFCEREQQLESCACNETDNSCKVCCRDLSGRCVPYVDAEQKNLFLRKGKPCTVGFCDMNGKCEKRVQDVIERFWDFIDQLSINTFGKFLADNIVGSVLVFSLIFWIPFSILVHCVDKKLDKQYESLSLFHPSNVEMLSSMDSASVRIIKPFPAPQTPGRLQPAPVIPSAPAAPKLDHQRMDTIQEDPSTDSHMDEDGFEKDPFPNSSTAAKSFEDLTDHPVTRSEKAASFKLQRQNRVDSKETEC
Sequence of stromelysin-1 (MMP-3) (P08254 100-477): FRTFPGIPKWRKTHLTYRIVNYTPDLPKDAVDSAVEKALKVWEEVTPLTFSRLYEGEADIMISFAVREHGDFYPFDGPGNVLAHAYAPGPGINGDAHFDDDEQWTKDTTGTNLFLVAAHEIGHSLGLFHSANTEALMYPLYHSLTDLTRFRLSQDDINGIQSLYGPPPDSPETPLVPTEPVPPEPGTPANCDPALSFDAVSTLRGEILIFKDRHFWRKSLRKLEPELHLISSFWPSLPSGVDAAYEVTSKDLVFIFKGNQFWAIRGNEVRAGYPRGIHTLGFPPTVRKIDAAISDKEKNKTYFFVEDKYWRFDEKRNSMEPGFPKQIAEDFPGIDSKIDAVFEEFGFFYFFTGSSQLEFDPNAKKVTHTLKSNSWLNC

SMILES: CCC[C@@H]([C@@H](CC(C)Cc1ccccc1)C(=O)N[C@H](C(=O)Nc1nccs1)C(C)(C)C)N(O)C=O (stereo partly drawn) [Example 8, (2R,3S)-3-(Formyl-hydroxyamino)-2-(3-phenyl-2-methyl-1-propyl)hexanoic Acid [(1S)-2,2-Dimethyl-1-(1,3-thiazol-2-ylcarbamoyl)-propyl]amide]
- IC50 [1]: > 1 µM
- Ki (stromelysin-1 (MMP-3)): > 1 µM
- Ki [2]: 0.1 to 0.5 µM
- Ki [3]: > 1 µM
- Ki [4]: > 1 µM
- Ki (TNFα converting enzyme): < 0.1 µM

SMILES: CCC[C@@H]([C@@H](CCCc1ccoc1)C(=O)N[C@H](C(=O)Nc1nccs1)C(C)(C)C)N(O)C=O [Example 5, (2R,3S)-3-(Formyl-hydroxyamino)-2-(3-(3-furyl)-1-propyl)hexanoic Acid [(1S)-2,2-Dimethyl-1-(1,3-thiazol-2-ylcarbamoyl)-1-propyl]amide]
- IC50 [1]: 0.1 to 0.5 µM
- Ki (stromelysin-1 (MMP-3)): < 0.1 µM
- Ki [2]: < 0.1 µM
- Ki [3]: < 0.1 µM
- Ki [4]: 0.5 to 1 µM

SMILES: CC(C)(C)[C@H](NC(=O)[C@H](CCCc1ccccc1)[C@H](CCC(F)(F)F)N(O)C=O)C(=O)Nc1nccs1 [Example 183, (2R,3S)-3-(Formyl-hydroxyamino)-2-(3-phenyl-1-propyl)-6,6,6-trifluorohexanoic Acid [(1S)-2,2-Dimethyl-1-(1,3-thiazol-2-ylcarbamoyl)-1-propyl]amide]
- Percentage Inhibition of Serum TNFα (serum TNFα; p.o.): ++ (50%-75%)
- Ki (stromelysin-1 (MMP-3)): 0.1 to 0.5 µM
- Ki [2]: < 0.1 µM
- Ki [3]: < 0.1 µM
- Ki [4]: > 1 µM
- Ki (TNFα converting enzyme): 0.1 to 0.5 µM

SMILES: CCC[C@@H]([C@@H](CCCc1ccoc1)C(=O)N[C@@H](CCCCNC(=O)OCc1ccccc1)C(=O)Nc1nccs1)N(O)C=O [Example 4, (2R,3S)-3-(Formyl-hydroxyamino)-2-(3-(3-furyl)-1-propyl)hexanoic Acid [(1S)-5-Benzyloxycarbonylamino-1-(1,3-thiazol-2-ylcarbamoyl)-1-pentyl]amide]
- IC50 [1]: < 0.1 µM
- Ki (stromelysin-1 (MMP-3)): < 0.1 µM
- Ki [2]: < 0.1 µM
- Ki [3]: 0.1 to 0.5 µM
- Ki [4]: > 1 µM
- Ki (TNFα converting enzyme): < 0.1 µM

SMILES: CCC[C@@H]([C@@H](CCCc1ccccc1)C(=O)N[C@@H](CCCCNC(=O)OCc1ccccc1)C(=O)Nc1nncs1)N(O)C=O [Example 3, (2R,3S)-3-(Formyl-hydroxyamino)-2-(3-phenyl-1-propyl)hexanoic Acid [(1S)-5-Benzyloxycarbonylamino-1-(1,3,4-thiadiazol-2-yl-carbamoyl)-1-pentyl]amide]
- IC50 [1]: 0.1 to 0.5 µM
- Ki (stromelysin-1 (MMP-3)): < 0.1 µM
- Ki [4]: > 1 µM
- Ki (TNFα converting enzyme): < 0.1 µM

SMILES: C[C@@H]([C@@H](CC1CCC(c2ccccc2)CC1)C(=O)N[C@H](C(=O)Nc1nccs1)C(C)(C)C)N(O)C=O (stereo partly drawn) [Example 2, (2R,3S)-3-(Formyl-hydroxyamino)-2-(4-phenylcyclohexylmethyl)butanoic Acid [(1S)-2,2-Dimethyl-1-(1,3-thiazol-2-ylcarbamoyl)-1-propyl]amide]
- IC50 [1]: > 1 µM
- Ki (stromelysin-1 (MMP-3)): 0.1 to 0.5 µM
- Ki [2]: < 0.1 µM
- Ki [3]: 0.1 to 0.5 µM
- Ki [4]: 0.5 to 1 µM
- Ki (TNFα converting enzyme): < 0.1 µM

SMILES: CCC[C@@H]([C@H](COCc1ccccc1)C(=O)N[C@@H](CCCCNC(=O)OCc1ccccc1)C(=O)Nc1nccs1)N(O)C=O [Example 6, (2R,3S)-3-(Formyl-hydroxyamino)-2-(benzyloxymethyl)hexanoic Acid [(1S)-5-Benzyloxycarbonylamino-1-(1,3-thiazol-2-ylcarbamoyl)-1-pentyl]amide]
- IC50 [1]: > 1 µM
- Ki (stromelysin-1 (MMP-3)): 0.1 to 0.5 µM
- Ki [2]: 0.1 to 0.5 µM
- Ki [3]: > 1 µM
- Ki [4]: > 1 µM
- Ki (TNFα converting enzyme): < 0.1 µM

SMILES: CCC[C@@H]([C@@H](CC(C)Cc1ccccc1)C(=O)N[C@H](C(=O)Nc1nccs1)C(C)(C)SCCNC(=O)OCc1ccccc1)N(O)C=O (stereo partly drawn) [Example 7, (2R,3S)-3-(Formyl-hydroxyamino)-2-(3-phenyl-2-methyl-1-propyl)hexanoic Acid [(1R)-2-Methyl-2-(2-benzyloxycarbonylamino-1-ethylsulfanyl)-1-(1,3-thiazol-2-ylcarbamoyl)-1-propyl]-amide]
- IC50 [1]: > 1 µM
- Ki (stromelysin-1 (MMP-3)): > 1 µM
- Ki [2]: 0.5 to 1 µM
- Ki [3]: > 1 µM
- Ki [4]: > 1 µM
- Ki (TNFα converting enzyme): 0.1 to 0.5 µM

SMILES: CCC[C@@H]([C@@H](Cc1ccc(C)s1)C(=O)N[C@H](C(=O)Nc1nccs1)[C@@H](C)OCc1ccccn1)N(O)C=O [Example 146, (2R,3S)-3-(Formyl-hydroxyamino)-2-(5-methyl-2-thiophenemethyl)hexanoic Acid [(1S,2R)-2-(2-Pyridylmethoxy)-1-(1,3-thiazol-2-ylcarbamoyl)-1-propyl]amide]
- Percentage Inhibition of Serum TNFα (serum TNFα; s.c.): ++ (50%-75%)

SMILES: C[C@@H]([C@@H](CCCc1ccccc1)C(=O)N[C@H](C(=O)Nc1cccnc1)C(C)(C)C)N(O)C=O [Example 1, (2R,3S)-3-(Formyl-hydroxyamino)-2-(3-phenyl-1-propyl)butanoic Acid [(1S)-2,2-Dimethyl-1-(pyridine-3-ylcarbamoyl)-1-propyl]amide]
- Ki (stromelysin-1 (MMP-3)): < 0.1 µM
- Ki [2]: < 0.1 µM
- Ki [3]: < 0.1 µM
- Ki [4]: < 0.1 µM
- Ki (TNFα converting enzyme): 0.5 to 1 µM

SMILES: C[C@@H]([C@@H](CCCc1ccc(Cl)cc1)C(=O)N[C@H](C(=O)Nc1cccnc1)C(C)(C)C)N(O)C=O [Example 195, (2R,3S)-3-(Formyl-hydroxyamino)-2-(3-(4-chlorophenyl)-1-propyl)butanoic Acid [(1S)-2,2-Dimethyl-1-(pyridine-3-ylcarbamoyl)-1-propyl]amide]
- Ki (stromelysin-1 (MMP-3)): < 0.1 µM
- Ki [2]: < 0.1 µM
- Ki [3]: < 0.1 µM
- Ki [4]: < 0.1 µM
- Ki (TNFα converting enzyme): > 1 µM

SMILES: CCC[C@@H]([C@@H](CC(C)Cc1ccccc1)C(=O)N[C@@H](CCCCNC(=O)OCc1ccccc1)C(=O)Nc1nccs1)N(O)C=O (stereo partly drawn) [Example 9, (2R,3S)-3-(Formyl-hydroxyamino)-2-(3-phenyl-2-methyl-1-propyl)hexanoic Acid [(1S)-5-Benzyloxycarbonylamino-1-(1,3-thiazol-2-ylcarbamoyl)-1-pentyl]amide]
- IC50 [1]: 0.1 to 0.5 µM
- Ki (stromelysin-1 (MMP-3)): > 1 µM
- Ki [2]: 0.5 to 1 µM
- Ki [3]: > 1 µM
- Ki [4]: > 1 µM
